Experiment [1] has as its system glyceraldehyde-3-phosphate dehydrogenase (GAPDH). The following applies: reported in J. Biol. Chem. 273:5821-5828; cited from earlier work.
Experiment [2] relates to homozygous col6a1-/- mice (Col6a1-deficient mouse model), diaphragm muscle. As to the kind of experiment: Apoptotic (TUNEL-positive) nuclei in diaphragm muscle of col6a1-/- mice. Format: in vivo. The following applies: 5 days. The text has this:
(§1) Homozyguous col6a1−/− mutants lack triple-helical collagen VI resulting in a phenotype that resembles BM/UCMD in human patients with collagen VI deficiency. Specifically, col6a1−/− mice show histological features of myopathy such as fiber necrosis and phagocytosis and a pronounced variation in fiber diameter. Muscles also show signs of stimulated regeneration of fibers and necrotic fibers are particularly frequent in the diaphragm thereby resembling more the clinical picture of UCMD than BM (Bertini E., Pepe G. (2002) Collagen type VI and related disorders: Bethlem myopathy and Ullrich scleroatonic muscular dystrophy Europ. J. Paediatric Neurology 6:193-198). […] This mitochondrial dysfunction might be caused by slight increase in of sarcolemmal calcium influx followed by calcium overload eventually causing opening of the mitochondrial permeability transition pore (MPTP) and finally apoptosis.
The effect of N-(dibenz(b,f)oxepin-10-ylmethyl)-N-methyl-N-prop-2-ynylammonium maleate (omigapil) was tested on the number of apoptotic nuclei in muscle of a Col6a1-deficient mouse model. Starting at 16±4 weeks of age, homozygous col6a1−/− mice were treated with omigapil. For this, omigapil was dissolved in 1% w/v ethanol to a final concentration of 20 μg/ml. Mutant mice received a final dose of 1 mg/kg or 10 mg/kg omigapil given twice daily by gavage following the guidance as described elsewhere (Sagot Y. et al. (2000) An orally active anti-apoptotic molecule (CGP 3466B) preserves mitochondria and enhances survival in an animal model of motoneuron disease. Br. J. Pharmacol. 131:721-728). For comparison col6a1−/− mice received the equivalent amount of vehicle only. After five days of application mice were sacrificed, the diaphragm removed, sectioned and stained for apoptotic nuclei using TUNEL staining. The number of apoptotic nuclei per mm2 area in the diaphragm muscle was determined as described (Irwin W A et al. (2003) Mitochondrial dysfunction and apoptosis in myopathic mice with collagen VI deficiency. Nature Genetics 35:367-371).

Experiment [3] has as its system Col6a1-deficient mice, mitochondria in muscle fibers of the diaphragm muscle. As to the kind of experiment: Ultrastructural appearance of mitochondria in diaphragm muscle fibers of Col6a1-deficient mice. Format: in vivo, mouse. The following applies: for percentage of myofibers with pathologically altered mitochondria vs vehicle-treated animals: Col6a1-deficient mice, diaphragm, FIG. 2.
From the text: as §1
The effect of N-(dibenz(b,f)oxepin-10-ylmethyl)-N-methyl-N-prop-2-ynylammonium maleate (omigapil) was tested on the effect to normalize ultrastructural defects in mitochondria of a Col6a1-deficient mouse model. For this, Col6a1-deficient mice were treated with omigapil as described in Example 1.
The ultrastructural appearance of mitochondria in muscle fibers of the diaphragm muscle was determined and quantified as described (Irwin W A et al. (2003) Mitochondrial dysfunction and apoptosis in myopathic mice with collagen VI deficiency. Nature Genetics 35:367-371).

In the case of `C#CCN(C)CC1=Cc2ccccc2Oc2ccccc21` [compound of formula (I), N-(dibenz(b,f)oxepin-10-ylmethyl)-N-methyl-N-prop-2-ynylamine], the “binding to glyceraldehyde-3-phosphate dehydrogenase (GAPDH)” value in experiment [1] is listed as “binds to glyceraldehyde-3-phosphate dehydrogenase (GAPDH)”.
On to “N-(dibenz(b,f)oxepin-10-ylmethyl)-N-methyl-N-prop-2-ynylammonium maleate [omigapil]”, for which the “number of apoptotic nuclei in diaphragm muscle (TUNEL staining) vs vehicle-treated col6a1-/- mice” value was “significantly reduced” in experiment [2] (1 mg/kg twice daily by gavage, N=3, FIG. 1) and “significantly reduced” in experiment [2] (10 mg/kg twice daily by gavage, N=4, FIG. 1). In experiment [2] (omigapil-treated, diaphragm muscle), the “number of apoptotic nuclei in omigapil-treated animals relative to wild-type animal” value was “comparable to the number seen in diaphragm muscle of a wild-type animal”. In addition, in experiment [3] (Col6a1-deficient mice treated as in Example 1), the “ultrastructural appearance of mitochondria in muscle fibers of the diaphragm muscle” value is reported as “normalized”. Also, the “percentage of myofibers with pathologically altered mitochondria vs vehicle-treated animals” value in experiment [3] (1 mg/kg (animals B1-B2)) and in experiment [3] (10 mg/kg (animals A1-A3)) was “clearly reduced” in each case.
